In patent publication US5098900A, “3(2H)pyridazinone, process for its preparation and anti-allergic agent containing it” (Nissan Chemical Industries Ltd., priority 1984, dated 1992):

Test system: LTD4
Assay: LTD4 antagonism in isolated guinea-pig trachea (LTD4-induced contraction)
Type: cell-based
Conditions: 5 min, test compound 10^-5 g/ml, LTD4 2×10^-8 g/ml; for inhibition at 10 µg/mL: Cavia porcellus
Protocol: (ii) LTC4 and LTD4 antagonisms in guinea-pig trachea
Antagonism for LTC4 and LTD4 were determined in isolated guinea-pig trachea prepared as spiral strip. 10 Tracheal preparations were suspended under 1 g tension in […] and they were incubated for 1 hr prior to use. Contractile responses to LTC4 (2×10^-8 g/ml) and LTD4 (2×10^-8 g/ml) were obtained after the maximal response to histamine (10^-4 M). Test compounds dissolved in 100% dimethyl sulfoxide were added to the organ baths (final concentration of 10^-5 g/ml) 5 min prior to LTC4 and LTD4 addition, and then contractile responses to LTC4 and LTD4 were compared with those of control which was obtained from a paired trachea in the absence of test compounds. LTC4 - and LTD4 -induced contractions were expressed as a percentage of the maximal response to histamine. The antagonism was determined as follows: Antagonism (%)=(1.0-% contraction in test/% contraction in control)×100

Row | Compound | inhibition at 10 µg/mL | LTD4 antagonism
1 | COc1cccc(CNc2cnn(C(C)(C)C)c(=O)c2Cl)c1 [Compound No. 8] | 53% | –
2 | CNC(=O)CCCCOc1cccc(CNc2cnn(C(C)C)c(=O)c2Cl)c1 [Compound No. 146, 4-Chloro-5-[3-(4-N-methylaminocarbonyl)butoxybenzylamino]-2-i-propyl-3(2H)pyridazinone] | 32% | –
3 | COc1ccc(CNc2cnn(C(C)C)c(=O)c2Cl)cc1OCCCCC(=O)OC(C)(C)C [compound 141] | 90% | –
4 | COCCOc1cc(CNc2cnn(C(C)C)c(=O)c2Cl)ccc1OC [compound 148] | 62% | –
5 | CC(C)n1ncc(NCc2ccc(Cl)cc2)c(Cl)c1=O [compound 123] | 88% | –
6 | CC(C)n1ncc(NCc2ccc(N(C)C)cc2)c(Cl)c1=O [compound 45] | – | 14%
7 | CCc1cc(CNc2cnn(C(C)C)c(=O)c2Cl)ccc1OC [compound 84] | 96% | –
8 | CCCCCOc1cc(CNc2cnn(CC)c(=O)c2Cl)ccc1OC [compound 19] | 66% | –
9 | CCOc1cccc(CNc2cnn(C(C)C)c(=O)c2Cl)c1OCc1ccccc1 [compound 114] | 77% | –
10 | CC(C)n1ncc(NCc2cccc(OCCCCC(=O)O)c2)c(Cl)c1=O [Compound No. 142, 4-Chloro-5-[3-(4-carboxy)butoxybenzylamino]-2-i-propyl-3(2H)pyridazinone] | 41% | –
11 | CCn1ncc(NCc2ccc(SC)cc2)c(Cl)c1=O [compound 124] | 71% | –
12 | CCCOc1cc(CNc2cnn(C(C)C)c(=O)c2Cl)ccc1OCc1ccccc1 [compound 117] | 25% | –
13 | CCOc1cc(CNc2cnn(CC)c(=O)c2Cl)ccc1O [compound 136] | 64% | –
14 | CCCOc1cc(CNc2cnn(C(C)C)c(=O)c2Br)ccc1OC [compound 167] | 96% | –
15 | CCCOc1cc(CNc2cnn(C(C)C)c(=O)c2Cl)ccc1O [compound 133] | 66% | –
16 | COc1cc(CNc2cnn(C(C)(C)C)c(=O)c2Cl)cc(OC)c1OC [compound 120] | 26% | –
17 | CC(C)n1ncc(NCc2cccc(O)c2)c(Cl)c1=O [Compound No. 137, 4-Chloro-5-(3-hydroxybenzylamino)-2-i-propyl-3-(2H)pyridazinone] | 96% | –
18 | COc1cccc(CNc2cnn(C(C)C)c(=O)c2Cl)c1 [Compound No. 7] | 92% | –
19 | CCOc1cccc(CNc2cnn(C(C)C)c(=O)c2Br)c1 [compound 165] | 71% | –
20 | CCOCCCNC(=O)c1ccc(CNc2cnn(C(C)(C)C)c(=O)c2Cl)cc1 [compound 57] | 27% | –
21 | CC(C)n1ncc(NCc2cccc(OCc3ccccc3)c2)c(Cl)c1=O [Compound No. 95, 4-Chloro-5-(3-benzyloxybenzylamino)-2-i-propyl-3-(2H)pyridazinone] | 62% | –
22 | COc1cccc(CNc2cnn(C(C)C)c(=O)c2Br)c1 [compound 163] | 95% | –
23 | CCn1ncc(NCc2cc(OC)c(OC)c(OC)c2)c(Cl)c1=O [compound 121] | 31% | –
24 | CCn1ncc(NCc2ccc(C)cc2C)c(Br)c1=O [compound 158] | 99% | –

Row | Compound | inhibition at 10 µg/mL | LTD4 antagonism
25 | CCOc1cc(CNc2cnn(C(C)C)c(=O)c2Cl)ccc1OCc1ccccc1 [compound 113] | 40% | –
26 | COc1ccc(CNc2cnn(C(C)(C)C)c(=O)c2Br)cc1OC [compound 17] | 80% | –
27 | C=CCNC(=O)c1ccc(CNc2cnn(C(C)(C)C)c(=O)c2Cl)cc1 [Compound No. 54, 4-Chloro-5-(4-allylaminocarbonylbenzylamino)-2-t-butyl-3(2H)pyridazinone] | 10% | –
28 | CCCOc1ccc(CNc2cnn(CC)c(=O)c2Cl)cc1OC [compound 108] | 53% | –
29 | CCCn1ncc(NCc2ccc(N(C)C)cc2)c(Cl)c1=O [compound 126] | 63% | –
30 | CCOc1ccc(CNc2cnn(CC)c(=O)c2Br)cc1 [compound 155] | 60% | –
31 | COCCCCCOc1cccc(CN(C)c2cnn(C(C)C)c(=O)c2Cl)c1 [Compound No. 149, 4-Chloro-5-[3-(5-methoxy)pentoxy-N-methylbenzylamino]-2-i-propyl-3(2H)pyridazinone] | 68% | –
32 | CCOc1ccccc1CNc1cnn(C(C)C)c(=O)c1Cl [compound 92] | 92% | –
33 | CCCOc1cc(CNc2cnn(CC)c(=O)c2Cl)ccc1O [compound 134] | 75% | –
34 | CCOc1cccc(CNc2cnn(C(C)C)c(=O)c2Cl)c1O [compound 127] | 76% | –
35 | COc1ccc(CNc2cnn(C(C)C)c(=O)c2)c(OC)c1 [Compound No. 100, 5-(2,4-dimethoxybenzylamino)-2-i-propyl-3(2H)pyridazinone] | 21% | –
36 | CC(C)(C)n1ncc(NCc2ccc(/C=C/C(=O)NCCC(=O)O)cc2)c(Cl)c1=O [Compound No. 61, 4-Chloro-5-[4-(β-carboxyethylaminocarbonyl-2-transethenyl)benzylamino]-2-t-butyl-3(2H)pyridazinone] | 21% | –
37 | CCc1cc(CNc2cnn(C(C)C)c(=O)c2Cl)ccc1OCc1ccccc1 [compound 82] | 46% | –
38 | CCn1ncc(NCc2ccc(N(C)C)cc2)c(Cl)c1=O [compound 46] | 49% | –
39 | COC(=O)CCCCOc1cccc(CNc2cnn(C(C)C)c(=O)c2Cl)c1 [Compound No. 144] | 44% | –
40 | CCCOc1cccc(CNc2cnn(CC)c(=O)c2Br)c1 [compound 157] | 88% | –
41 | CCOCCNC(=O)c1ccc(CNc2cnn(C(C)(C)C)c(=O)c2Cl)cc1 [compound 56] | 19% | –
42 | CCc1cc(CNc2cnn(CC)c(=O)c2Cl)ccc1OCc1ccccc1 [compound 83] | 74% | –
43 | CCCOc1cc(CNc2cnn(CC)c(=O)c2Cl)ccc1OCc1ccccc1 [compound 118] | 61% | –
44 | CCOc1cccc(CNc2cnn(CC)c(=O)c2Cl)c1OC [compound 110] | 69% | –
45 | CCc1ccc(CNc2cnn(CC)c(=O)c2Cl)cc1 [compound 81] | 68% | –
46 | CCc1c(NCc2ccc(C)cc2)cnn(C(C)(C)C)c1=O [Compound No. 36, 4-Ethyl-5-(4-methylbenzylamino)-2-t-butyl-3(2H)pyridazinone] | 19% | –
47 | CCc1cc(CNc2cnn(CC)c(=O)c2Cl)ccc1O [compound 132] | 61% | –
48 | CCOC(=O)CCNC(=O)/C=C/c1ccc(CNc2cnn(C(C)(C)C)c(=O)c2Cl)cc1 [Compound No. 60] | 15% | –

Row | Compound | inhibition at 10 µg/mL | LTD4 antagonism
49 | CCc1cc(CNc2cnn(CC)c(=O)c2Cl)ccc1OC [compound 85] | 91% | –
50 | CCCOc1cc(CNc2cnn(C(C)C)c(=O)c2C)ccc1OC [compound 153] | 45% | –
51 | CN(C)CCNC(=O)c1ccc(CNc2cnn(C(C)(C)C)c(=O)c2Cl)cc1 [compound 50] | – | 12%
52 | COc1ccc(CNc2cnn(C(C)C)c(=O)c2Br)c(OC)c1 [compound 169] | 100% | –
53 | CC(C)n1ncc(NCc2cccc(OCCCCCO)c2)c(Cl)c1=O [Compound No. 147, 4-Chloro-5-[3-(5-hydroxy)pentoxybenzylamino]-2-i-propyl-3(2H)pyridazinone] | 73% | –
54 | CCOc1cccc(CNc2cnn(C(C)C)c(=O)c2C)c1 [compound 152] | 75% | –
55 | CCCOc1cc(CNc2cnn(CC)c(=O)c2Br)ccc1OC [compound 161] | 95% | –
56 | CC(C)n1ncc(NCc2ccc(C=O)cc2)c(Cl)c1=O [Compound No. 140, 4-Chloro-5-(4-formylbenzylamino)-2-i-proyl-3(2H)pyridazinone] | 77% | –
57 | Cc1ccc(CNc2cnn(C(C)C)c(=O)c2Br)c(C)c1 [compound 168] | 99% | –
58 | COc1cc(CNc2cnn(C(C)C)c(=O)c2Cl)cc(OC)c1 [compound 98] | 55% | –
59 | COc1ccc(CNc2cnn(C(C)C)c(=O)c2Cl)cc1O [compound 138] | 86% | –
60 | CCCN(CCC)C(=O)c1ccc(CNc2cnn(C(C)(C)C)c(=O)c2Cl)cc1 [compound 39] | 67% | –
61 | CN(C)CCNC(=O)c1ccc(CNc2cnn(C(C)(C)C)c(=O)c2Cl)cc1 [compound 58] | 23% | –
62 | CC(C)n1ncc(NCc2ccc(O)cc2)c(Cl)c1=O [compound 130] | 100% | –
63 | CC(C)n1ncc(NCc2ccc(OCc3ccccc3)cc2)c(Cl)c1=O [compound 96] | 59% | –
64 | CCCN(CCC)C(=O)c1ccc(CNc2cnn(C(C)C)c(=O)c2Cl)cc1 [Compound No. 125, 4-Chloro-5-(4-di-n-propylaminocarbonylbenzylamino)-2-i-propyl-3(2H)pyridazinone] | 53% | –
65 | COc1ccc(OC)c(CNc2cnn(C(C)C)c(=O)c2Cl)c1 [compound 104] | 68% | –
66 | CCOc1cc(CNc2cnn(CC)c(=O)c2Br)ccc1OC [compound 160] | 98% | –
67 | CCOc1cc(CNc2cnn(CC)c(=O)c2Cl)ccc1OCc1ccccc1 [compound 115] | 73% | –
68 | CCOc1cc(CNc2cnn(C(C)C)c(=O)c2Br)ccc1OC [compound 166] | 100% | –
69 | COC(=O)CCCCOc1cc(CNc2cnn(C(C)C)c(=O)c2Cl)ccc1OC [compound 145] | 81% | –
70 | COc1ccc(CNc2cnn(C(C)C)c(=O)c2Cl)cc1OCCCCC(=O)O [compound 143] | 28% | –
71 | CN(C)c1ccc(CNc2cnn(C(C)(C)C)c(=O)c2Br)cc1 [compound 47] | – | 65%
